What follows are compounds tested against T1, human CCR10 (Homo sapiens, UniProt P46092) (assay: CCR10 antagonistic effect: calcium assay of human CCR10 (CTACK-induced increase of intracellular calcium in hCCR10G16 cells)). Conditions: at a concentration of not more than 1000 nmol/L; human CCR10-expressing hCCR10G16 cells, 300 nmol/L CTACK added; read-out: inhibition of increase in the calcium ion concentration.
T1 construct: expressed in transfected cells; host or cells: KJMGER8 cells (Namalwa cell-derived line), beta-estradiol-induced; hCCR10G16 cells
T1 sequence (P46092 1-362): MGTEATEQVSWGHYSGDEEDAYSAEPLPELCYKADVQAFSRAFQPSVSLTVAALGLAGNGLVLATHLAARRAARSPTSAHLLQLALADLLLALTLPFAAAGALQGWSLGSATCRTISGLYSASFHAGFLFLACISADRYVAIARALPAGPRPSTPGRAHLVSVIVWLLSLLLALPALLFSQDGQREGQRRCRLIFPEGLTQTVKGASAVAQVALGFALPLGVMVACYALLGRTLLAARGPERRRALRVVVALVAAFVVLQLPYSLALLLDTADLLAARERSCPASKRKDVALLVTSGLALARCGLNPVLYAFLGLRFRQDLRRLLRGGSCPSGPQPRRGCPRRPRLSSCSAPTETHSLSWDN
Assay type: cell-based
Procedure, shortened: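 Inhibition of CTACK-evoked calcium flux (max minus min Fluo-3 fluorescence over ~5 min, FDSS) was calculated against control in β-estradiol-induced human CCR10/Gα16 KJMGER8 cells, after 30 min compound preincubation at 37 °C; CTACK added from a 300 nmol/L solution.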

Inhibition at up to 1 µM, ≥ 50%:
Cc1ccccc1Nc1c(C(=O)N2CC(c3ccc(F)cc3)C2)cnc(S(=O)(=O)Nc2ccon2)c1C [Compound 292, 5-[3-(4-fluorophenyl)azetidine-1-carbonyl]-N-(isoxazol-3-yl)-3-methyl-4-(o-tolylamino)pyridine-2-sulfonamide]
COc1ccc(C)c(Nc2cc(S(N)(=O)=O)ncc2C(=O)N2CCC(c3ccc(F)cc3)CC2)c1 [Compound 93, 5-[4-(4-fluorophenyl)piperidine-1-carbonyl]-4-(5-methoxy-2-methylphenylamino)pyridine-2-sulfonamide]
Cc1cc(F)ccc1Nc1c(C(=O)N2CCC(c3ccc(F)cc3)CC2)nnc(S(N)(=O)=O)c1Cl [Compound 240, 4-chloro-5-(4-fluoro-2-methylphenylamino)-6-[4-(4-fluorophenyl)piperidine-1-carbonyl]pyridazine-3-sulfonamide]
Cc1ccc(Nc2cc(S(N)(=O)=O)ncc2C(=O)N2CCC(c3ccc(F)cc3)CC2)cc1 [Compound 98, 5-[4-(4-fluorophenyl)piperidine-1-carbonyl]-4-(p-tolylamino)pyridine-2-sulfonamide]
N#Cc1cc(OC(F)(F)F)ccc1Nc1c(C(=O)N2CCC(c3ccc(F)cc3)CC2)cnc(S(N)(=O)=O)c1Cl [Compound 256, 3-chloro-4-[2-cyano-4-(trifluoromethoxy)phenylamino]-5-[4-(4-fluorophenyl)piperidine-1-carbonyl]pyridine-2-sulfonamide]
Cc1cc(F)ccc1Nc1cc(S(=O)(=O)N(C)C)ncc1C(=O)N1CCC(c2ccc(F)cc2)CC1 [Compound 125, 4-(4-fluoro-2-methylphenylamino)-5-[4-(4-fluorophenyl)piperidine-1-carbonyl]-N,N-dimethylpyridine-2-sulfonamide]
CCCNC(=O)NS(=O)(=O)c1cc(Nc2cc(C)c(Cl)cc2C)c(C(=O)N2CCC(c3ccc(F)cc3)CC2)cn1 [Compound 167, 4-(4-chloro-2,5-dimethylphenylamino)-5-[4-(4-fluorophenyl)piperidine-1-carbonyl]-N-(propylcarbamoyl)pyridine-2-sulfonamide]
Cc1c(Cl)ccc(Nc2cc(S(N)(=O)=O)ncc2C(=O)N2CCC(c3ccc(F)cc3)CC2)c1F [Compound 77, 4-(4-chloro-2-fluoro-3-methylphenylamino)-5-[4-(4-fluorophenyl)piperidine-1-carbonyl]pyridine-2-sulfonamide]
Cc1ccccc1Nc1c(C(=O)N2CCC(c3ccc(F)cc3)CC2)cnc(S(=O)(=O)c2ccccc2)c1Cl [Compound 205, [5-chloro-6-(phenylsulfonyl)-4-(o-tolylamino)pyridin-3-yl][4-(4-fluorophenyl)piperidin-1-yl]methanone]
COc1ccc(Nc2cc(S(N)(=O)=O)ncc2C(=O)N2CCC(c3ccc(F)cc3)CC2)cc1C [Compound 88, 5-[4-(4-fluorophenyl)piperidine-1-carbonyl]-4-(4-methoxy-3-methylphenylamino)pyridine-2-sulfonamide]
Cc1cc(C)cc(Nc2cc(S(N)(=O)=O)ncc2C(=O)N2CCC(c3ccc(F)cc3)CC2)c1 [Compound 110, 4-(3,5-dimethylphenylamino)-5-[4-(4-fluorophenyl)piperidine-1-carbonyl]pyridine-2-sulfonamide]
Cc1cc(F)ccc1Nc1cc(S(=O)(=O)N2CCNC2=O)ncc1C(=O)N1CCC(c2ccc(F)cc2)CC1 [Compound 144, 1-{4-(4-fluoro-2-methylphenylamino)-5-[4-(4-fluorophenyl)piperidine-1-carbonyl]pyridin-2-ylsulfonyl}imidazolidin-2-one]
Cc1c(S(=O)(=O)Nc2ccon2)ncc(C(=O)N2CCC(c3ccc(F)cc3)CC2)c1Nc1cc(F)cc(F)c1F [Compound 275, 5-[4-(4-fluorophenyl)piperidine-1-carbonyl]-N-(isoxazol-3-yl)-3-methyl-4-(2,3,5-trifluorophenylamino)pyridine-2-sulfonamide]
Cc1cc(NS(=O)(=O)c2ncc(C(=O)N3CCC(c4ccc(F)cc4)CC3)c(Nc3ccc(F)cc3C)c2Cl)no1 [Compound 40, 3-chloro-4-(4-fluoro-2-methylphenylamino)-5-[4-(4-fluorophenyl)piperidine-1-carbonyl]-N-(5-methylisoxazol-3-yl)pyridine-2-sulfonamide]
Cc1cc(F)ccc1Nc1cc(S(=O)(=O)Nc2ncccn2)ncc1C(=O)N1CCC(c2ccc(F)cc2)CC1 [Compound 145, 4-(4-fluoro-2-methylphenylamino)-5-[4-(4-fluorophenyl)piperidine-1-carbonyl]-N-(pyrimidin-2-yl)pyridine-2-sulfonamide]
Cc1cc(O)c(Cl)cc1Nc1cc(S(N)(=O)=O)ncc1C(=O)N1CCC(c2ccc(F)cc2)CC1 [Compound 105, 4-(5-chloro-4-hydroxy-2-methylphenylamino)-5-[4-(4-fluorophenyl)piperidine-1-carbonyl]pyridine-2-sulfonamide]
Cc1cc(NS(=O)(=O)c2ncc(C(=O)N3CCC(c4ccc(F)cc4)CC3)c(Nc3cc(F)ccc3F)c2C)sn1 [Compound 315, 4-(2,5-difluorophenylamino)-5-[4-(4-fluorophenyl)piperidine-1-carbonyl]-3-methyl-N-(3-methylisothiazol-5-yl)pyridine-2-sulfonamide]
Cc1ncc(Cl)cc1Nc1c(C(=O)N2CCC(c3ccc(F)cc3)CC2)cnc(S(=O)(=O)Nc2ccon2)c1C [Compound 248, 4-(5-chloro-2-methylpyridin-3-ylamino)-5-[4-(4-fluorophenyl)piperidine-1-carbonyl]-N-(isoxazol-3-yl)-3-methylpyridine-2-sulfonamide]
Cc1cc(Nc2cc(S(N)(=O)=O)ncc2C(=O)N2CCC(c3ccc(F)cc3)CC2)c(F)cc1Cl [Compound 67, 4-(4-chloro-2-fluoro-5-methylphenylamino)-5-[4-(4-fluorophenyl)piperidine-1-carbonyl]pyridine-2-sulfonamide]
Cn1ncc2cc(Nc3c(C(=O)N4CCC(c5ccc(F)cc5)CC4)cnc(S(N)(=O)=O)c3Cl)ccc21 [Compound 242, 3-chloro-5-[4-(4-fluorophenyl)piperidine-1-carbonyl]-4-(1-methyl-1H-indazol-5-ylamino)pyridine-2-sulfonamide]
CCCNC(=O)NS(=O)(=O)c1cc(Nc2ccc(F)cc2C)c(C(=O)N2CCC(c3ccc(F)cc3)CC2)cn1 [Compound 168, 4-(4-fluoro-2-methylphenylamino)-5-[4-(4-fluorophenyl)piperidine-1-carbonyl]-N-(propylcarbamoyl)pyridine-2-sulfonamide]
Cc1ccccc1Nc1c(C(=O)N2CCC(c3ccc(F)cc3)CC2)cnc(S(N)(=O)=O)c1Cl [Compound 33, 3-chloro-5-[4-(4-fluorophenyl)piperidine-1-carbonyl]-4-(o-tolylamino)pyridine-2-sulfonamide]
Cc1c(S(N)(=O)=O)ncc(C(=O)N2CC(c3ccc(F)cc3)C2)c1NCc1ccccc1 [Compound 284, 4-(benzylamino)-5-[3-(4-fluorophenyl)azetidine-1-carbonyl]-3-methylpyridine-2-sulfonamide]
Cc1ccc(Cl)cc1Nc1cc(S(N)(=O)=O)ncc1C(=O)N1CCC(c2ccc(F)cc2)CC1 [Compound 109, 4-(5-chloro-2-methylphenylamino)-5-[4-(4-fluorophenyl)piperidine-1-carbonyl]pyridine-2-sulfonamide]
Cc1ccc(Cl)cc1Nc1c(C(=O)N2CCC(c3ccccc3)CC2)cnc(S(N)(=O)=O)c1Cl [Compound 309, 3-chloro-4-(5-chloro-2-methylphenylamino)-5-(4-phenylpiperidine-1-carbonyl)pyridine-2-sulfonamide]
Cc1c(S(=O)(=O)Nc2ccn(C)n2)ncc(C(=O)N2CCC(c3ccc(F)cc3)CC2)c1NCc1ccccc1 [Compound 250, 4-(benzylamino)-5-[4-(4-fluorophenyl)piperidine-1-carbonyl]-3-methyl-N-(1-methyl-1H-pyrazol-3-yl)pyridine-2-sulfonamide]
NS(=O)(=O)c1ncc(C(=O)N2CCC(c3ccc(F)cc3)CC2)c(NCc2cccs2)c1Cl [Compound 231, 3-chloro-5-[4-(4-fluorophenyl)piperidine-1-carbonyl]-4-(thiophen-2-ylmethylamino)pyridine-2-sulfonamide]
Cc1cccc(Nc2c(C(=O)N3CCC(C(N)=O)(c4ccccc4)CC3)cnc(S(N)(=O)=O)c2Cl)c1 [Compound 203, 1-[5-chloro-6-sulfamoyl-4-(m-tolylamino)nicotinoyl]-4-phenylpiperidine-4-carboxamide]

— US9701689B2, “Substituted pyridines and pyridazines as CCR10 receptor inhibitors” (KYOWA HAKKO KIRIN CO., LTD., priority 2012, dated 2017)
